Experimental findings from US6458838B1, “Adrenoleukodystrophy treatments” (Johns Hopkins University, priority 1999, dated 2002) are described below.

Test [1] concerns ALDR mRNA. In words: Semi-quantitative RT-PCR in primary fibroblasts. In kind it is cell-based. As to conditions: 5 mM 4-PBA for 2 days. Here is the method:
Semi-quantitative RT-PCR was done on the mRNA isolated from these cells (FIG. 1). […] In addition, the expression of acyl-CoA oxidase (AOX), the rate-limiting enzyme in VLCFA β-oxidation, was not affected. Although previous studies have reported that ALDR mRNA was not detectable in fibroblasts by either northern or RT-PCR analyses, those RT-PCR studies used about 66 ng of CDNA; we used about 250 ng of cDNA.
Semi-quantitative RT-PCR analysis. Total RNA from tissue culture cells (10^6-10^7 cells/sample) was isolated using TRizol Reagent™ (Life Technologies), treated with DNase I (100-200 units in 40 mM HCI, 10 mM NaCl, 6 mM MgCl2, pH 7.3), incubated at 37° C. for 30 min, extracted with phenol/chloroform, and precipitated with isopropanol. cDNA was generated using MMLV reverse transcriptase (RT) (Life Technologies). PCR was done in the linear range of amplification (determined for each primerpair-cDNA combination). For each cDNA sample, a ‘cocktail’ was prepared, containing PCR buffer (Promega), 200 µM of each DNTP, 1.5 mM MgCl2, 250 ng cDNA, 0.25 U of Taq polymerase (Promega) and […]. The ‘cocktail’ was divided into separate tubes containing cDNA specific primers.
Primers. The PCR primers used are listed below. In the parentheses, h indicates human and m, mouse; this is followed by the gene name, product size and annealing temperature. […]

The test system of test [2] is human primary fibroblasts. In words: Phytanic acid oxidation ([2,3-3H]-phytanic acid, release of 3H-H2O). In kind it is cell-based. The settings on record: 5 mM 4-PBA for 10 days. From the text:
The increase in phytanic acid oxidation activity was significant (P<0.001 5(n=4) for X-ALD primary fibroblasts and P<0.013 (n=3) for normal primary fibroblasts). […] The relative amount of SCP2 protein was compared to the housekeeping gene β-actin.
Phytanic acid oxidation occurs exclusively in the peroxisomal matrix and can therefore serve as a marker for peroxisomal function. […] SCP2 is a 15-kDa protein located exclusively in the peroxisomal matrix.
Biochemical measurements. […] For VLCFA measurements, total lipids were extracted, converted to methyl esters, purified by TLC and subjected to capillary GC analysis as described. Duplicate assays were set up independently and were assayed on different days. C24:0 β-oxidation activity of human and mouse fibroblasts and human lymphoblastoid cells was determined by measuring their capacity to degrade [1-^14C]-C24:0 fatty acid (American Radiolabeled Chemicals, St Louis, Mo.) to water-soluble products as described. Phytanic acid oxidation was measured as described. Cells were incubated with [2,3-^3H]-phytanic acid for 24 hours, and the release of ^3H-H2O to the aqueous medium was determined (activity in pmol/hr per mg protein).

Turning to `O=C(O)CCCc1ccccc1` [4-PBA, 4-Phenyl butyrate], the “ALDR mRNA levels” value in test [1] (normal and X-ALD human primary fibroblasts) is listed as “substantial increase”; in test [1] (normal and X-ALD mouse primary fibroblasts), “substantial increase”. Besides, the phytanic acid oxidation result in test [2] (X-ALD human primary fibroblasts) and in test [2] (normal human primary fibroblasts) was “twofold increase” in each case.
